Source: ChEMBL document CHEMBL1123798, “Stereocontrolled syntheses for the six diastereomeric 1,2-dihydroxy-4,5-diaminocyclohexanes: PtII complexes and P-388 antitumor properties” (J Med Chem, 1987)

Columns and labels:
Assay type in all cases: functional, organism-based
Details in all cases: Mus musculus
[1] = system: P388; assay: Median survival time against P388 leukemia in CDF1 mice at a dose of 6 mg/kg administered intraperitoneally; […]; design: dose 6 mg/kg
[2] = system: P388; assay: Number of treated mice to that of control against P388 leukemia in CDF1 mice at a dose of 6 mg/kg administered intraperitoneally; active; design: dose 6 mg/kg
[3] = system: P388; assay: Median survival time against P388 leukemia in CDF1 mice at a dose of 3 mg/kg administered intraperitoneally; […]; design: dose 3 mg/kg
[4] = system: P388; assay: Number of treated mice to that of control against P388 leukemia in CDF1 mice at a dose of 3 mg/kg administered intraperitoneally; active; design: dose 3 mg/kg
[5] = system: P388; assay: Median survival time against P388 leukemia in CDF1 mice at a dose of 1.5 mg/kg administered intraperitoneally; […]; design: dose 1.5 mg/kg
[6] = system: P388; assay: Number of treated mice to that of control against P388 leukemia in CDF1 mice at a dose of 1.5 mg/kg administered intraperitoneally; active; design: dose 1.5 mg/kg

CISPLATIN
MST [1]: 24.5
T/C [2]: 249
MST [3]: 18.5
T/C [4]: 188
MST [5]: 15.5
T/C [6]: 158
